According to patent US20060069132A1, “Azolecarboxamide herbicides” (priority 2004, published 2006):

system: ducksalad; test: Test C flooded paddy test; type: in vivo, Heteranthera limosa; settings: 62 g ai/ha, scale 0 to 100 (0 no effect, 100 complete control)

SMILES	Ducksalad plant response rating
CCn1nc(C(C)(C)C)cc1C(=O)Nc1cc(C(=O)N2CCCC2)ccc1F [Compound 242]	65

same assay, conditions: 125 g ai/ha, scale 0 to 100 (0 no effect, 100 complete control)

SMILES	Ducksalad plant response rating
CCn1nc(C(C)(C)C)cc1C(=O)Nc1cc(C(=O)N2CCCC2)ccc1F [Compound 242]	95

same assay, conditions: 250 g ai/ha, scale of 0 to 100, 0 is no effect, 100 is complete control

SMILES	Ducksalad plant response rating
CCn1nc(C(C)(C)C)cc1C(=O)Nc1cc(C(=O)N2CCCC2)ccc1F [Compound 242]	95

same assay, conditions: 500 g ai/ha, visual rating after 12 to 14 days, scale 0 to 100 (0 no effect, 100 complete control)

SMILES	Plant response rating, Ducksalad
CCn1nc(C(C)(C)C)cc1C(=O)Nc1cc(C(=O)N2CCCC2)ccc1F [Compound 242]	95

system: common ragweed; test: Test C pre-/postemergence herbicide test; type: in vivo, Ambrosia elatior; parameters: key to Plant response rating, Ragweed: 0 = no effect, 100 = complete control; settings: 62 g ai/ha; preemergence; scale 0 to 100
Outline: (§1)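 Pre- and postemergence application, solvent/surfactant formulation; post at 1- to 4-leaf stage (2–18 cm). Greenhouse 12–14 d. Visual rating vs controls, 0 = no effect, 100 = complete control.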

SMILES	Plant response rating, Ragweed
CCn1nc(C(C)(C)C)cc1C(=O)Nc1cc(C(=O)N2CCCC2)ccc1F [Compound 242]	95

same assay, conditions: 250 g ai/ha; scale 0-100; preemergence

SMILES	Plant response rating, Ragweed
CCn1nc(C(C)(C)C)cc1C(=O)Nc1cc(C(=O)N2CCCC2)ccc1F [Compound 242]	100

same assay, conditions: 500 g ai/ha; scale 0 to 100 (0 no effect, 100 complete control); visual, 12 to 14 days; preemergence

SMILES	Plant response rating, Ragweed
CCn1nc(C(C)(C)C)cc1C(=O)Nc1cc(C(=O)N2CCCC2)ccc1F [Compound 242]	100

system: pigweed; test: Test C pre-/postemergence herbicide test; type: in vivo, Amaranthus retroflexus; settings: 62 g ai/ha; preemergence; scale 0 to 100
Outline: as §1

SMILES	Plant response rating, Pigweed
CCn1nc(C(C)(C)C)cc1C(=O)Nc1cc(C(=O)N2CCCC2)ccc1F [Compound 242]	100

same assay, conditions: 125 g ai/ha; scale 0 (no effect) to 100 (complete control); visual, 12 to 14 days; preemergence

SMILES	Plant response rating, Pigweed
CCn1nc(C(C)(C)C)cc1C(=O)Nc1cc(C(=O)N2CCCC2)ccc1F [Compound 242]	100

same assay, conditions: 250 g ai/ha; scale 0-100; preemergence

SMILES	Plant response rating, Pigweed
CCn1nc(C(C)(C)C)cc1C(=O)Nc1cc(C(=O)N2CCCC2)ccc1F [Compound 242]	100

same assay, conditions: 500 g ai/ha; scale 0 to 100 (0 no effect, 100 complete control); visual, 12 to 14 days; preemergence

SMILES	Plant response rating, Pigweed
CCn1nc(C(C)(C)C)cc1C(=O)Nc1cc(C(=O)N2CCCC2)ccc1F [Compound 242]	100

system: yellow nutsedge; test: Test C pre-/postemergence herbicide test; type: in vivo, Cyperus esculentus; settings: 62 g ai/ha; preemergence; scale 0 to 100
Outline: as §1

SMILES	Plant response rating, Nutsedge, Yellow
CCn1nc(C(C)(C)C)cc1C(=O)Nc1cc(C(=O)N2CCCC2)ccc1F [Compound 242]	0

same assay, conditions: 125 g ai/ha; scale 0 (no effect) to 100 (complete control); visual, 12 to 14 days; preemergence

SMILES	Plant response rating, Nutsedge, Yellow
CCn1nc(C(C)(C)C)cc1C(=O)Nc1cc(C(=O)N2CCCC2)ccc1F [Compound 242]	0

same assay, conditions: 250 g ai/ha; scale 0-100; preemergence

SMILES	Plant response rating, Nutsedge, Yellow
CCn1nc(C(C)(C)C)cc1C(=O)Nc1cc(C(=O)N2CCCC2)ccc1F [Compound 242]	15

same assay, conditions: 500 g ai/ha; scale 0 to 100 (0 no effect, 100 complete control); visual, 12 to 14 days; preemergence

SMILES	Plant response rating, Nutsedge, Yellow
CCn1nc(C(C)(C)C)cc1C(=O)Nc1cc(C(=O)N2CCCC2)ccc1F [Compound 242]	25

system: goosegrass; test: Test C pre-/postemergence herbicide test; type: in vivo, Eleusine indica; settings: 62 g ai/ha; preemergence; scale 0 to 100
Outline: as §1

SMILES	Plant response rating, Goosegrass
CCn1nc(C(C)(C)C)cc1C(=O)Nc1cc(C(=O)N2CCCC2)ccc1F [Compound 242]	100

same assay, conditions: 125 g ai/ha; scale 0 (no effect) to 100 (complete control); visual, 12 to 14 days; preemergence

SMILES	Plant response rating, Goosegrass
CCn1nc(C(C)(C)C)cc1C(=O)Nc1cc(C(=O)N2CCCC2)ccc1F [Compound 242]	100

same assay, conditions: 250 g ai/ha; scale 0-100; preemergence

SMILES	Plant response rating, Goosegrass
CCn1nc(C(C)(C)C)cc1C(=O)Nc1cc(C(=O)N2CCCC2)ccc1F [Compound 242]	100

same assay, conditions: 500 g ai/ha; scale 0 to 100 (0 no effect, 100 complete control); visual, 12 to 14 days; preemergence

SMILES	Plant response rating, Goosegrass
CCn1nc(C(C)(C)C)cc1C(=O)Nc1cc(C(=O)N2CCCC2)ccc1F [Compound 242]	100

system: large crabgrass; test: Test C pre-/postemergence herbicide test; type: in vivo, Digitaria sanguinalis; settings: 62 g ai/ha; preemergence; scale 0 to 100
Outline: as §1

SMILES	Plant response rating, Crabgrass, Large
CCn1nc(C(C)(C)C)cc1C(=O)Nc1cc(C(=O)N2CCCC2)ccc1F [Compound 242]	100

same assay, conditions: 125 g ai/ha; scale 0 (no effect) to 100 (complete control); visual, 12 to 14 days; preemergence

SMILES	Plant response rating, Crabgrass, Large
CCn1nc(C(C)(C)C)cc1C(=O)Nc1cc(C(=O)N2CCCC2)ccc1F [Compound 242]	100

same assay, conditions: 250 g ai/ha; scale 0-100; preemergence

SMILES	Plant response rating, Crabgrass, Large
CCn1nc(C(C)(C)C)cc1C(=O)Nc1cc(C(=O)N2CCCC2)ccc1F [Compound 242]	100

same assay, conditions: 500 g ai/ha; scale 0 to 100 (0 no effect, 100 complete control); visual, 12 to 14 days; preemergence

SMILES	Plant response rating, Crabgrass, Large
CCn1nc(C(C)(C)C)cc1C(=O)Nc1cc(C(=O)N2CCCC2)ccc1F [Compound 242]	100

system: barnyardgrass; test: Test C flooded paddy test; type: in vivo, Echinochloa crus-galli; settings: 62 g ai/ha, scale 0 to 100 (0 no effect, 100 complete control)
Outline: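 After a postemergence application at 1 to 4 leaves (plants 2–18 cm high), or at 2 leaves for barnyardgrass in flooded paddy, plants stayed in the greenhouse for 12 to 14 days. Damage was then judged visually relative to control plants, with 100 indicating complete control.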

SMILES	Barnyardgrass plant response rating
CCn1nc(C(C)(C)C)cc1C(=O)Nc1cc(C(=O)N2CCCC2)ccc1F [Compound 242]	15

same assay, conditions: 125 g ai/ha, scale 0 to 100 (0 no effect, 100 complete control)

SMILES	Barnyardgrass plant response rating
CCn1nc(C(C)(C)C)cc1C(=O)Nc1cc(C(=O)N2CCCC2)ccc1F [Compound 242]	75

same assay, conditions: 250 g ai/ha, scale of 0 to 100, 0 is no effect, 100 is complete control

SMILES	Barnyardgrass plant response rating
CCn1nc(C(C)(C)C)cc1C(=O)Nc1cc(C(=O)N2CCCC2)ccc1F [Compound 242]	90

same assay, conditions: 500 g ai/ha, visual rating after 12 to 14 days, scale 0 to 100 (0 no effect, 100 complete control)

SMILES	Plant response rating, Barnyardgrass
CCn1nc(C(C)(C)C)cc1C(=O)Nc1cc(C(=O)N2CCCC2)ccc1F [Compound 242]	95

system: giant foxtail; test: Test C pre-/postemergence herbicide test; type: in vivo, Setaria faberi; settings: 62 g ai/ha; preemergence; scale 0 to 100
Outline: as §1

SMILES	Plant response rating, Foxtail, Giant
CCn1nc(C(C)(C)C)cc1C(=O)Nc1cc(C(=O)N2CCCC2)ccc1F [Compound 242]	85

same assay, conditions: 125 g ai/ha; scale 0 (no effect) to 100 (complete control); visual, 12 to 14 days; preemergence

SMILES	Plant response rating, Foxtail, Giant
CCn1nc(C(C)(C)C)cc1C(=O)Nc1cc(C(=O)N2CCCC2)ccc1F [Compound 242]	100

same assay, conditions: 250 g ai/ha; scale 0-100; preemergence

SMILES	Plant response rating, Foxtail, Giant
CCn1nc(C(C)(C)C)cc1C(=O)Nc1cc(C(=O)N2CCCC2)ccc1F [Compound 242]	100

same assay, conditions: 500 g ai/ha; scale 0 to 100 (0 no effect, 100 complete control); visual, 12 to 14 days; preemergence

SMILES	Plant response rating, Foxtail, Giant
CCn1nc(C(C)(C)C)cc1C(=O)Nc1cc(C(=O)N2CCCC2)ccc1F [Compound 242]	100

system: soybean; test: Test C pre-/postemergence herbicide test; type: in vivo, Glycine max; settings: 62 g ai/ha; preemergence; scale 0 to 100
Outline: as §1

SMILES	Plant response rating, Soybean
CCn1nc(C(C)(C)C)cc1C(=O)Nc1cc(C(=O)N2CCCC2)ccc1F [Compound 242]	0

same assay, conditions: 250 g ai/ha; scale 0-100; preemergence

SMILES	Plant response rating, Soybean
CCn1nc(C(C)(C)C)cc1C(=O)Nc1cc(C(=O)N2CCCC2)ccc1F [Compound 242]	65

same assay, conditions: 500 g ai/ha; scale 0 to 100 (0 no effect, 100 complete control); visual, 12 to 14 days; preemergence

SMILES	Plant response rating, Soybean
CCn1nc(C(C)(C)C)cc1C(=O)Nc1cc(C(=O)N2CCCC2)ccc1F [Compound 242]	75

system: velvetleaf; test: Test C pre-/postemergence herbicide test; type: in vivo, Abutilon theophrasti; settings: 62 g ai/ha; preemergence; scale 0 to 100
Outline: as §1

SMILES	Plant response rating, Velvetleaf
CCn1nc(C(C)(C)C)cc1C(=O)Nc1cc(C(=O)N2CCCC2)ccc1F [Compound 242]	100

same assay, conditions: 250 g ai/ha; scale 0-100; preemergence

SMILES	Plant response rating, Velvetleaf
CCn1nc(C(C)(C)C)cc1C(=O)Nc1cc(C(=O)N2CCCC2)ccc1F [Compound 242]	100

same assay, conditions: 500 g ai/ha; scale 0 to 100 (0 no effect, 100 complete control); visual, 12 to 14 days; preemergence

SMILES	Plant response rating, Velvetleaf
CCn1nc(C(C)(C)C)cc1C(=O)Nc1cc(C(=O)N2CCCC2)ccc1F [Compound 242]	100
